In this experiment the target is T1, Human HPK1, catalytic domain (Homo sapiens, UniProt Q92918).
T1 sequence (Q92918 1-346): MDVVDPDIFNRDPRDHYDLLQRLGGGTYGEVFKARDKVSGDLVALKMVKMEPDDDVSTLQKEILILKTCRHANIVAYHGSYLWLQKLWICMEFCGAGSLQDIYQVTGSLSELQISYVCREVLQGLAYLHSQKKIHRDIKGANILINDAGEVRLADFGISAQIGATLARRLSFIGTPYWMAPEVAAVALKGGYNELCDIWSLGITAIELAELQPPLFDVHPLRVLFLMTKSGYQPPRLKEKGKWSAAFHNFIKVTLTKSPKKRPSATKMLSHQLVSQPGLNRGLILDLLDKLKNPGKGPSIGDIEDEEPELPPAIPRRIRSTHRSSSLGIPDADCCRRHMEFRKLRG
Nature of the experiment: HPK1-SLP76 TR-FRET Assay. It is filed as biochemical. Particulars: 75 pM HPK1, ATP 10 uM, SLP76 10 nM, 30 min pre-incubation, 60 min reaction. On the technique in general: TR-FRET usually uses a lanthanide donor and a delayed reading to cut background.

The compound `COc1cc2c(cc1Nc1ncc3ccc(N4C(=O)OC[C@H]4C(C)C)cc3n1)CN(C)CC2` [Compound 3-10, (4R)-3-{2-[(6-methoxy-2-meth-yl-1,2,3,4-tetrahydroisoquinolin-7-yl)amino]quinazolin-7-yl}-4-(propan-2-yl)-1,3-oxazolidin-2-one] had an IC50 of 107 nM.

On to `COc1cc2c(cc1Nc1ncc3ccc(N4CCCC4=O)cc3n1)CN(C)CC2` [Compound 3-1, 1-{2-[(6-methoxy-2-methyl-1,2,3,4-tetrahydroisoquinolin-7-yl)amino]quinazolin-7-yl}-pyrrolidin-2-one], for which the IC50 was 241 nM.

On to `COc1cc2c(cc1Nc1ncc3ccc(-c4ccc5c(c4)CCN5)cc3n1)CNCC2` [Compound 1-87, 7-(2,3-dihydro-1H-indol-5-yl)-N-(6-methoxy-1,2,3,4-tetrahydroisoquinolin-7-yl)quinazolin-2-amine], for which the midpoint of inhibition, the IC50, lay at 49.2 nM.

`COc1cc2c(cc1Nc1ncc3ccc(NCC(=O)N(C)C)cc3n1)CN(C)CC2` [Compound 3-71, N~2~-{2-[(6-methoxy-2-meth-yl-1,2,3,4-tetrahydroisoquinolin-7-yl)amino]quinazolin-7-yl}-N,N-dimethylglycinamide] gave an IC50 of 91.7 nM.

`COc1ccc(-c2ccc3cnc(Nc4cc5c(cc4OC)CCNC5)nc3c2)cn1` [Compound 1-39, 7-(6-methoxypyridin-3-yl)-N-(6-methoxy-1,2,3,4-tetrahydroisoquinolin-7-yl)quinazolin-2-amine] displayed an IC50 of 34.8 nM.

`COc1cc2c(cc1Nc1ncc3ccc(N[C@H]4CC[C@@H](O)CC4)cc3n1)CN(C)CC2` [Compound 3-46, (1s,4s)-4-((2-((6-methoxy-2-methyl-1,2,3,4-tetrahydroiso-quinolin-7-yl)amino)quinazolin-7-yl)amino)cyclohexan-1-ol] came in with an IC50 of 118 nM.

Turning to `COc1cc2c(cc1Nc1ncc3ccc(Nc4nccc(CO)n4)cc3n1)CN(C)CC2` [Compound 3-35, [2-({2-[(6-methoxy-2-methyl-1,2,3,4-tetrahydroisoquinolin-7-yl)amino]quinazolin-7-yl}-amino)pyrimidin-4-yl]methanol], the IC50 was 1.67 nM.

Compound `COc1cc2c(cc1Nc1ncc3ccc(N[C@H]4CCCOCC4)cc3n1)CN(C)CC2` [Compound 3-47, (S)-N2-(6-methoxy-2-methyl-1,2,3,4-tetrahydroisoquinolin-7-yl)-N7-(oxepan-4-yl)quinaz-oline-2,7-diamine] returned an IC50 of 170 nM.

Regarding `COc1cc2c(cc1Nc1ncc3c(N)c(F)c(-c4cnc5c(c4C)NCCO5)c(Cl)c3n1)CN(C)CC2` (single isomer, unassigned) [Compound 2-93, (+ or −)-8-chloro-6-fluoro-N~2~-(6-methoxy-2-methyl-1,2,3,4-tetrahydroisoquinolin-7-yl)-7-(8-methyl-2,3-dihydro-1H-pyrido[2,3-b][1,4]oxazin-7-yl)quinazoline-2,5-diamine], the IC50 is 0.0213 nM.

Regarding `COc1cc2c(cc1Nc1ncc3ccc(N4CCn5c(C)nnc5C4)cc3n1)CN(C)CC2` [Compound 3-57, N-(6-methoxy-2-methyl-1,2,3,4-tetrahydroisoquinolin-7-yl)-7-(3-methyl-5,6-dihydro[1,2,4]-triazolo[4,3-a]pyrazin-7(8H)-yl)quinazolin-2-amine], the IC50 was 799 nM.

The compound `COc1cc2c(cc1Nc1ncc3ccc(NCc4ccc5c(c4)S(=O)(=O)N=C(C)N5)cc3n1)CN(C)CC2` [Compound 3-25, 7-[({2-[(6-methoxy-2-methyl-1,2,3,4-tetrahydroisoquinolin-7-yl)amino]quinazolin-7-yl}-amino)methyl]-3-methyl-1lambda~6~,2,4-benzothia-diazine-1,1(4H)-dione] yielded an IC50 of 46.8 nM.

`CC(=O)Nc1ccc(Nc2ncc3c(N)c(F)c(-c4cnc5c(c4C)NCCO5)cc3n2)cc1` [Compound 2-15] gave an IC50 of 0.0731 nM. Against the preceding compound, the IC50 is about 640-fold lower.

The compound `COc1cc2c(cc1Nc1ncc3ccc(-c4cccc5c4CNCC5)cc3n1)CN(C)CC2` [Compound 1-9, N-(6-methoxy-2-methyl-1,2,3,4-tetrahydroisoquinolin-7-yl)-7-(1,2,3,4-tetrahydroisoquinolin-8-yl)quinazolin-2-amine] came in with an IC50 of 42.9 nM.

`COc1cc2c(cc1Nc1ncc3ccc(-c4ccccc4-c4nnc(C)o4)cc3n1)CN(C)CC2` [Compound 1-110, N-(6-methoxy-2-methyl-1,2,3,4-tetrahydroisoquinolin-7-yl)-7-[2-(5-methyl-1,3,4-oxadiazol-2-yl)phenyl]quinazolin-2-amine]: inhibition was half-maximal at 302 nM (IC50). Against the preceding compound, the IC50 is about 7-fold higher.

What is called IC50 is the point on the concentration scale where inhibition reaches its midpoint. Low values mean greater potency in that assay, high ones weaker potency in that assay.
